As usually defined, the IC50 is the concentration needed to halve the response being measured. For orientation: GI50 means the concentration that inhibits growth by half.

In assay [1] the test system is A2780. In words: Antiproliferative activity against human A2780 cells. It is filed as functional, cell-based.
Assay [2] addresses Phosphatidylinositol 4,5-bisphosphate 3-kinase catalytic subunit alpha isoform (Homo sapiens, UniProt P42336). The assay can be described thus: Inhibition of PI3Kalpha (unknown origin).
Assay [3] concerns the target Histone deacetylase 1 (Homo sapiens, UniProt Q13547). In words: Inhibition of HDAC1 (unknown origin).
For assay [4], the target named is T1, Histone deacetylase 8 (Homo sapiens, UniProt Q9BY41).
T1 sequence (Q9BY41 whole entry): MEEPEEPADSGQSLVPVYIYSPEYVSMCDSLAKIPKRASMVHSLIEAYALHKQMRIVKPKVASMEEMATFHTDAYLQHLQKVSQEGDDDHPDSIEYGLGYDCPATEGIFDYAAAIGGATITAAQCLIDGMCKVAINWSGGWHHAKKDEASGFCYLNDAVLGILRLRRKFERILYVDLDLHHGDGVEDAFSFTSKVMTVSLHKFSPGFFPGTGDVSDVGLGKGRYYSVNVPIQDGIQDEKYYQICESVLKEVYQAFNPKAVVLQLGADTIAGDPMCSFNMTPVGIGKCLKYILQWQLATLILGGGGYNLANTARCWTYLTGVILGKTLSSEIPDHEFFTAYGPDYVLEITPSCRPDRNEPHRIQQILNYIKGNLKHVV
The assay can be described thus: Inhibition of HDAC8 (unknown origin) using R-H-K(Ac)-K(Ac)-AFC as fluoregenic substrate by fluorescence based analysis.

The subject of assay [5] is MCF7. In words: Cytotoxicity against human MCF7 cells assessed as reduction in cell growth incubated for 24 hrs by MTT assay. It is filed as functional, cell-based. To be noted: MCF7, 24 h.
Assay [6] relates to MV4-11. The assay can be described thus: Cytotoxicity against human MV4-11 cells assessed as reduction in cell growth incubated for 24 hrs by MTT assay. The note with it: MV4-11, 24 h. It is filed as functional, cell-based. Background: Tetrazolium assays rely on reduction of a dye to a coloured formazan, in cell work by metabolically active cells.
Assay [7] deals with A549. The assay can be described thus: Cytotoxicity against human A549 cells assessed as reduction in cell growth incubated for 24 hrs by MTT assay. To be noted: A549, 24 h. It is filed as functional, cell-based.
The test system of assay [8] is Daudi. In words: Cytotoxicity against human Daudi cells assessed as reduction in cell growth incubated for 24 hrs by MTT assay. It is filed as functional, cell-based.
Assay [9] deals with Histone deacetylase. In words: Inhibition of HDAC (unknown origin). It is filed as protein assay, Homo sapiens.
Assay [10] has as its system Jurkat. The assay can be described thus: Antiproliferative activity against human Jurkat cells. It is filed as functional, cell-based.
The target in assay [11] is Tyrosine-protein kinase JAK2 (Homo sapiens, UniProt O60674). In words: Inhibition of JAK2 (unknown origin).
The test system of assay [12] is A549. In words: Antiproliferative activity against human A549 cells.
Assay [13] has as its system MDA-MB-231. In words: Antiproliferative activity against human MDA-MB-231 cells.
Assay [14] deals with HepG2. In words: Antiproliferative activity against human HepG2 cells. It is filed as functional, cell-based.
Assay [15] relates to K562. In words: Antiproliferative activity against human K562 cells assessed as cell growth inhibition by SRB assay. It is filed as functional.
Assay [16] deals with HCT-116. The assay can be described thus: Antiproliferative activity against human HCT-116 cells measured after 24 hrs by MTT assay. It is filed as functional, cell-based. To be noted: HCT-116, 24 h.
The test system of assay [17] is A549. The assay can be described thus: Antiproliferative activity against human A549 cells assessed as cell growth inhibition by SRB assay. It is filed as functional. For orientation: In SRB staining, fixed cells bind dye roughly in proportion to their protein.
Assay [18] relates to HeLa. In words: Antiproliferative activity against human HeLa cells measured after 24 hrs by MTT assay. It is filed as functional, cell-based.
The test system of assay [19] is HepG2. In words: Antiproliferative activity against human HepG2 cells measured after 24 hrs by MTT assay. It is filed as functional, cell-based. The note with it: HepG2, 24 h.
Assay [20] concerns MCF7. The assay can be described thus: Antiproliferative activity against human MCF7 cells assessed as cell growth inhibition by SRB assay. It is filed as functional.
The test system of assay [21] is HeLa. In words: Antiproliferative activity against human HeLa cells assessed as cell growth inhibition by SRB assay. It is filed as functional.
Assay [22] relates to MCF7. In words: cells. The note with it: Homo sapiens.
In assay [23] the target is T2, Protein deacetylase HDAC6 (Homo sapiens, UniProt Q9UBN7).
T2 sequence (Q9UBN7 whole entry): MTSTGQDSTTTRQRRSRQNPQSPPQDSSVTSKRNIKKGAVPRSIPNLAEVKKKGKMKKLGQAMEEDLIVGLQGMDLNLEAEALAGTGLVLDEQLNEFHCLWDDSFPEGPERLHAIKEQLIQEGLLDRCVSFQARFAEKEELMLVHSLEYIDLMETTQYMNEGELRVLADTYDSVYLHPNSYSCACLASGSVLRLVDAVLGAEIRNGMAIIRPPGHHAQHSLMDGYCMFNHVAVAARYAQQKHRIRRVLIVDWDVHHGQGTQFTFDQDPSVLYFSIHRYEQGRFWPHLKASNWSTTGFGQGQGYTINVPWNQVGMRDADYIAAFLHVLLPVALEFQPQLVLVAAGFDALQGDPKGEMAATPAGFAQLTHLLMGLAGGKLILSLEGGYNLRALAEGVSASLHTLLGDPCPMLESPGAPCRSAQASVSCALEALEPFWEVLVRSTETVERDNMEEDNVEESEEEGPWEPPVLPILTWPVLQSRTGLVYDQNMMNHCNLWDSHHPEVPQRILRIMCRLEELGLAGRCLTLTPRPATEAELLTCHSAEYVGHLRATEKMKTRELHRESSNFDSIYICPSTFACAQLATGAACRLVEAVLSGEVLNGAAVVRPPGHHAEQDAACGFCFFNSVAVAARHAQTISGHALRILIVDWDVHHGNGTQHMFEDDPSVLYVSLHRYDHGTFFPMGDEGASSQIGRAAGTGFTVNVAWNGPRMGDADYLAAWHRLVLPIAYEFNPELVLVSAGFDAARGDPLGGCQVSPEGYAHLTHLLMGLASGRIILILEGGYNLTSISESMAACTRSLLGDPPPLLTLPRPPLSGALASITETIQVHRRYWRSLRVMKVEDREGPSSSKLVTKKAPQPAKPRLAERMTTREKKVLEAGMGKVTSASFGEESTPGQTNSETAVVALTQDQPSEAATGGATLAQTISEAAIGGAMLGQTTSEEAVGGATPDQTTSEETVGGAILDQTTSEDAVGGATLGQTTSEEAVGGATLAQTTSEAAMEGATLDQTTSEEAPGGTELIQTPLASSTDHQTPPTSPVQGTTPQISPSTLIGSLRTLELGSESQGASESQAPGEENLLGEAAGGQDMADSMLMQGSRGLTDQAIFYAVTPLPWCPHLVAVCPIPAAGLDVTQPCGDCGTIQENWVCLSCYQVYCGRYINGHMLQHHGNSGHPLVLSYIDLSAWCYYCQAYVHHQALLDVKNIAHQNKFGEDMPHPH
In words: Inhibition of HDAC6 (unknown origin).

Histone deacetylase 1, sequence (Q13547 whole entry): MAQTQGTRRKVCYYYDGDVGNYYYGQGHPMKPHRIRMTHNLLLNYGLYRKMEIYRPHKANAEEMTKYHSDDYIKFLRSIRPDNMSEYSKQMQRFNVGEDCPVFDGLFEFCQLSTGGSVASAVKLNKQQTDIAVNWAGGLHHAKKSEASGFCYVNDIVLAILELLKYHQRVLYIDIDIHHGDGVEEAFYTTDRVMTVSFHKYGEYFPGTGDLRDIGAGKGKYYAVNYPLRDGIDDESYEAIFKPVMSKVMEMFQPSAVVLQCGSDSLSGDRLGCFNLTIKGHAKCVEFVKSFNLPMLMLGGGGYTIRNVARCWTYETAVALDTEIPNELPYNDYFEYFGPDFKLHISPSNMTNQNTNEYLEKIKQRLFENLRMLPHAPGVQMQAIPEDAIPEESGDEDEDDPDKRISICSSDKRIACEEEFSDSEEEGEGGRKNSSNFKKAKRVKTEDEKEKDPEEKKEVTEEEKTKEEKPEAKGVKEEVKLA
Phosphatidylinositol 4,5-bisphosphate 3-kinase catalytic subunit alpha isoform, sequence (P42336 whole entry, canonical isoform): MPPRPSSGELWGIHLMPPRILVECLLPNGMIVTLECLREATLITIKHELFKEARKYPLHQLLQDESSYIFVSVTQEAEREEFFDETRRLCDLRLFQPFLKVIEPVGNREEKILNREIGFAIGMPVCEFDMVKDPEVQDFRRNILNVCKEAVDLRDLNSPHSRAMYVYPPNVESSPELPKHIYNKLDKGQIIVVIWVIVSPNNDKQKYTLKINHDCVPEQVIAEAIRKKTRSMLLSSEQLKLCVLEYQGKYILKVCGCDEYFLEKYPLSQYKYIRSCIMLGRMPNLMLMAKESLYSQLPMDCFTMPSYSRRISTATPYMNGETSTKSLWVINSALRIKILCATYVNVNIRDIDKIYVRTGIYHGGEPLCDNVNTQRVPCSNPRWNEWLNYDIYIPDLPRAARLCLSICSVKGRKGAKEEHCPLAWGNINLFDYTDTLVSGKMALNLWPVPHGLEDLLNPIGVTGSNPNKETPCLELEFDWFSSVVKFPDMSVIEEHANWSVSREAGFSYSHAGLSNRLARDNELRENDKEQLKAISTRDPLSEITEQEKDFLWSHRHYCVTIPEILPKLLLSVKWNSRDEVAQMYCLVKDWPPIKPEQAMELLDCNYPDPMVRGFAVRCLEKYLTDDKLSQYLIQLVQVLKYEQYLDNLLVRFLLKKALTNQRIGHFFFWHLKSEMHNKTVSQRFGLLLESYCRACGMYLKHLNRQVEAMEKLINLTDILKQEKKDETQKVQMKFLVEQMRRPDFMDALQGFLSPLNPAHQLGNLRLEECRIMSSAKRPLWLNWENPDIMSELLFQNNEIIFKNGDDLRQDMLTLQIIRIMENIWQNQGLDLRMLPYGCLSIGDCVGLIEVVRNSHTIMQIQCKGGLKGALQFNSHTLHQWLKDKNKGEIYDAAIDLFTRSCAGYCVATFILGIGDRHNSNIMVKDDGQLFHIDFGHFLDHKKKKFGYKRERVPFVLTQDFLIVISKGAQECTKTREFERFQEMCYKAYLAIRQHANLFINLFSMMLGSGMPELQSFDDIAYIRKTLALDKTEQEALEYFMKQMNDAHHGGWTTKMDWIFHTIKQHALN
Tyrosine-protein kinase JAK2, sequence (O60674 whole entry): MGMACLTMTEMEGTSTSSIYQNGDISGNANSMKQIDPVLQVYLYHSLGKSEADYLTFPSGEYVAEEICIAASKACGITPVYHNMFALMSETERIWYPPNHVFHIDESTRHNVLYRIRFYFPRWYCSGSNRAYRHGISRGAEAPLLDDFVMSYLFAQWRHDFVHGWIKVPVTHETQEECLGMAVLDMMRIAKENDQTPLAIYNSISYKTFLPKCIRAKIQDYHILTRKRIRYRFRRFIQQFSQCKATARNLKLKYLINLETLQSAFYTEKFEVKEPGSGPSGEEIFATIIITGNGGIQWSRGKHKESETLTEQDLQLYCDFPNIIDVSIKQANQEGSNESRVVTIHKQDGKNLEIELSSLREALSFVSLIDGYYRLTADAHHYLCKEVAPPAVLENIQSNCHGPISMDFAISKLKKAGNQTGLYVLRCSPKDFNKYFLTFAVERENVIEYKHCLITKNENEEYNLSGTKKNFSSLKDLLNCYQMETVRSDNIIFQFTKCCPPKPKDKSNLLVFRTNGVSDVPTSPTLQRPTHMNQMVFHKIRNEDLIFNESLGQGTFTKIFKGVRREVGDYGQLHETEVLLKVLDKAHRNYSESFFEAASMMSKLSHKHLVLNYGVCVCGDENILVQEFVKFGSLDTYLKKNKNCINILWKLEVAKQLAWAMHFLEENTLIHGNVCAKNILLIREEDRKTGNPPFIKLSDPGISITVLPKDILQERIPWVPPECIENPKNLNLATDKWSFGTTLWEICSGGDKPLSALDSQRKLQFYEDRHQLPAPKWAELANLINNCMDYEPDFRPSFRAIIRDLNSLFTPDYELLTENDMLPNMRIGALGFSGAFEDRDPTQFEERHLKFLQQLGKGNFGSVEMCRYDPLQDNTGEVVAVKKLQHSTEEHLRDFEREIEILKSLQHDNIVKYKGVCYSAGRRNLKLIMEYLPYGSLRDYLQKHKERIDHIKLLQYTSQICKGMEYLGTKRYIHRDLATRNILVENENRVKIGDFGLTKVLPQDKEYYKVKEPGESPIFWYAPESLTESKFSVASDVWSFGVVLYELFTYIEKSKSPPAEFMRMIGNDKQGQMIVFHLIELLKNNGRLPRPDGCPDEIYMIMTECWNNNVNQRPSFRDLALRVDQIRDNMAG

Consider `COc1ncc(-c2ccc3ncc(C(=O)NCCCCCCC(=O)NO)cc3c2)cc1NS(=O)(=O)c1ccc(F)cc1F`, for which the half-inhibitory concentration (IC50) was determined as 2310 nM in [1], 1.3 nM in [2] and 4.8 nM in assay [3].
With `O=C(CCCCCN1C(=O)c2ccccc2NC(=O)c2cc3ccccc3cc21)NO`, the IC50 in assay [4] was 183 nM; in [5] it was 93 nM; in [6], 93 nM; in [7] it was 93 nM; in [8] it was 93 nM.
In assay [9], `CC(C)(C)OC(=O)Nc1cccc(-c2cc(C(=O)NCCCCCCC(=O)NO)no2)c1` came in with an IC50 of 5.8 nM.
`Cc1cccc(Nc2nc(Nc3ccc(NC(=O)CCCCCCC(=O)NO)cc3)ncc2C)c1`: the concentration for half-maximal inhibition (IC50) in assay [10] was 370 nM; in assay [11], 0.6 nM; in assay [12], 370 nM; in [13], 370 nM; in [14] it was 370 nM; in assay [3], 2.2 nM.
For `COc1ncc(-c2ccc3nccc(C(=O)NCCCCC(=O)NO)c3c2)cc1NS(=O)(=O)c1cc(F)cc(F)c1`, the figures for the IC50 in assay [1], in assay [2] and in assay [3] were 2150 nM, 1.3 nM and 4.8 nM, respectively.
Take `COc1cccc(Nc2nc(Nc3ccc(NC(=O)CCCCCCC(=O)NO)cc3)ncc2C)c1`: the IC50 in assay [10] was determined as 140 nM; in [11], 0.5 nM; in assay [12], 140 nM; in assay [13], 140 nM; in assay [14], 140 nM; in [3] it was 31.9 nM.
For the compound `COc1ncc(-c2ccc3nccc(C(=O)NCCCCCC(=O)NO)c3c2)cc1NS(=O)(=O)c1cc(F)cc(F)c1`, the IC50 in [1] came to 2620 nM; in [2], 1.3 nM; in [3], 4.8 nM.
For `COc1cccc2c1C(=O)c1c(O)c3c(c(O)c1C2=O)C[C@@](O)(C(=O)CO)C[C@@H]3O[C@H]1C[C@H](N)[C@H](O)[C@H](C)O1` [DOXORUBICIN], the GI50 in assay [15], in [17], in [20] and in assay [21] was less than 10000 nM throughout. Further, the IC50 in assay [16], in assay [18] and in assay [19] was 4170 nM in each case.
Consider `COc1cc(OCCCCCCC(=O)NO)ccc1C1c2ccc(O)cc2CCN1CC(C)(C)F` (stereo not drawn), for which the IC50 in assay [22] was found to be 1960 nM; in assay [23], 26 nM.
Regarding `CN1c2ccc(NCc3ccc(/C=C/C(=O)NO)cc3)cc2C(=O)N2CCc3c([nH]c4ccc(O)cc34)C21` (stereo not drawn), the IC50 in assay [22] and in assay [12] was 180 nM throughout.
In turn, `CC/C(=C(\c1ccccc1)c1ccc(OCCN(C)C)cc1)c1ccccc1` [TAMOXIFEN] yielded an IC50 in assay [22] of 22500 nM.
On to `Cc1cnc(Nc2ccc(OCCN3CCCC3)cc2)nc1Nc1cccc(S(=O)(=O)NC(C)(C)C)c1` [FEDRATINIB], for which the IC50 in [10], in assay [12], in assay [13] and in assay [14] was 560 nM in each case.

Source of the values: ChEMBL document CHEMBL5614367, “Hydroxamic acid hybrids: Histone deacetylase inhibitors with anticancer therapeutic potency” (Eur J Med Chem, 2023).
